Consider 27 molecules from the NIST ThermoML archive (doi:10.1021/je200195q).

The data set in a line: activity coefficient (dimensionless); of the first substance listed, at infinite dilution; xn = mol fraction of the nth substance listed. Particulars: 101 kPa, Liquid, Chromatography, x1 = 0.

Each structure is given as a SMILES string. Numbers after ± are expanded uncertainties.

With `ClC(Cl)Cl` [trichloromethane] + CCCCn1cc[n+](C)c1.O=S(=O)([N-]S(=O)(=O)C(F)(F)C(F)(F)F)C(F)(F)C(F)(F)F, the activity coefficient (322.55 K) turned out to be 0.613 ± 0.043, the activity coefficient (342.75 K) came to 0.74 ± 0.049 and the activity coefficient (362.65 K) was determined as 0.79 ± 0.051.

`CCCC=O` [butanal] + CCn1cc[n+](C)c1.CS(=O)(=O)[O-]: the activity coefficient reads like this: (312.55 K) 4.87 ± 0.33; (322.45 K) 4.95 ± 0.34; (332.45 K) 3.51 ± 0.24.

Regarding `CCCC(C)=O` [pentan-2-one] + CCCCCC[n+]1ccn(C)c1.FC(F)(F)C(F)(F)[P-](F)(F)(F)(C(F)(F)C(F)(F)F)C(F)(F)C(F)(F)F, the activity coefficient (312.8 K) came to 0.271 ± 0.03, the activity coefficient (332.85 K) worked out at 0.298 ± 0.031 and the activity coefficient (354.65 K) came to 0.311 ± 0.031.

Regarding `CCCCCCC` [heptane] + CCCCn1cc[n+](C)c1.O=S(=O)([N-]S(=O)(=O)C(F)(F)C(F)(F)F)C(F)(F)C(F)(F)F, the activity coefficient was found to be 13.6 ± 0.93 (322.55 K), 12.4 ± 0.84 (342.75 K) and 11.6 ± 0.79 (362.65 K).

For `CC(C)OC(C)C` [diisopropyl ether] + CCCCn1cc[n+](C)c1.O=S(=O)([N-]S(=O)(=O)C(F)(F)C(F)(F)F)C(F)(F)C(F)(F)F, the activity coefficient (322.55 K) worked out at 3.46 ± 0.24, the activity coefficient (342.75 K) was determined as 3.46 ± 0.23 and the activity coefficient (362.65 K) turned out to be 3.43 ± 0.23.

`CCCO` [propan-1-ol] + CCCCCCCCCCn1cc[n+](CCCCCCCCCC)c1C.O=S(=O)([N-]S(=O)(=O)C(F)(F)F)C(F)(F)F: the activity coefficient is, setting by setting: (323.1 K) 1.31 ± 0.085; (333.15 K) 1.16 ± 0.074; (343.15 K) 1.06 ± 0.067.

As to `CCN(CC)CC` [triethylamine] + CCCCCCCCCCn1cc[n+](CCCCCCCCCC)c1C.O=S(=O)([N-]S(=O)(=O)C(F)(F)F)C(F)(F)F, the activity coefficient by setting is: (323.1 K) 3.67 ± 0.25; (333.15 K) 3.17 ± 0.22; (343.15 K) 2.86 ± 0.2.

Take `C[N+](=O)[O-]` [nitromethane] + CCn1cc[n+](C)c1.CS(=O)(=O)[O-]: the activity coefficient (312.55 K) was 2.06 ± 0.14, the activity coefficient (322.45 K) amounted to 1.26 ± 0.081 and the activity coefficient (332.45 K) came out at 0.801 ± 0.052.

For the molecule `CC(C)O` [propan-2-ol] + CCCCCC[n+]1ccn(C)c1.FC(F)(F)C(F)(F)[P-](F)(F)(F)(C(F)(F)C(F)(F)F)C(F)(F)C(F)(F)F, the activity coefficient is, setting by setting: (312.8 K) 2.06 ± 0.14; (332.85 K) 1.62 ± 0.11; (354.65 K) 1.26 ± 0.081.

Regarding `CCCCCCCCCCC` [undecane] + CCCCCC[n+]1ccn(C)c1.FC(F)(F)C(F)(F)[P-](F)(F)(F)(C(F)(F)C(F)(F)F)C(F)(F)C(F)(F)F, the activity coefficient was determined as 31 ± 2.1 (312.8 K), 25.5 ± 1.7 (332.85 K) and 19.9 ± 1.4 (354.65 K).

Take `C=O` [methanal] + CCCCCC[n+]1ccn(C)c1.FC(F)(F)C(F)(F)[P-](F)(F)(F)(C(F)(F)C(F)(F)F)C(F)(F)C(F)(F)F: the activity coefficient runs as follows: (312.8 K) 0.096 ± 0.03; (332.85 K) 0.134 ± 0.029; (354.65 K) 0.146 ± 0.029.

Regarding `C1COCCO1` [1,4-dioxane] + CCn1cc[n+](C)c1.CS(=O)(=O)[O-], the activity coefficient reads like this: (312.55 K) 2.67 ± 0.18; (322.45 K) 2.67 ± 0.18; (332.45 K) 2.66 ± 0.18.

In the case of `CC#N` [acetonitrile] + CCCCCCCCCCn1cc[n+](CCCCCCCCCC)c1C.O=S(=O)([N-]S(=O)(=O)C(F)(F)F)C(F)(F)F, the activity coefficient worked out at 0.47 ± 0.037 (323.1 K), 0.453 ± 0.036 (333.15 K) and 0.44 ± 0.035 (343.15 K).

Regarding `ClCCl` [dichloromethane] + CCCCCC[n+]1ccn(C)c1.FC(F)(F)C(F)(F)[P-](F)(F)(F)(C(F)(F)C(F)(F)F)C(F)(F)C(F)(F)F, the activity coefficient (312.8 K) came out at 0.66 ± 0.045, the activity coefficient (332.85 K) stood at 0.699 ± 0.047 and the activity coefficient (354.65 K) amounted to 0.707 ± 0.047.

As for `C#CCCCC` [1-hexyne] + CCCCn1cc[n+](C)c1.O=S(=O)([N-]S(=O)(=O)C(F)(F)C(F)(F)F)C(F)(F)C(F)(F)F, the activity coefficient turned out to be 2.86 ± 0.2 (322.55 K), 2.73 ± 0.19 (342.75 K) and 2.64 ± 0.18 (362.65 K).

With `C=O` [methanal] + CCn1cc[n+](C)c1.CS(=O)(=O)[O-], the activity coefficient reads like this: (312.55 K) 0.615 ± 0.043; (322.45 K) 0.656 ± 0.045; (332.45 K) 0.691 ± 0.046.

In the case of `CC(C)CO` [2-methyl-1-propanol] + CCCCn1cc[n+](C)c1.O=S(=O)([N-]S(=O)(=O)C(F)(F)C(F)(F)F)C(F)(F)C(F)(F)F, the activity coefficient (322.55 K) worked out at 2.26 ± 0.15, the activity coefficient (342.75 K) amounted to 1.84 ± 0.12 and the activity coefficient (362.65 K) stood at 1.57 ± 0.1.

`CCO` [ethanol] + CCn1cc[n+](C)c1.CS(=O)(=O)[O-]: the activity coefficient (312.55 K) was found to be 0.438 ± 0.035, the activity coefficient (322.45 K) was found to be 0.418 ± 0.035 and the activity coefficient (332.45 K) stood at 0.405 ± 0.034.

For `ClC(Cl)(Cl)Cl` [tetrachloromethane] + CCCCn1cc[n+](C)c1.O=S(=O)([N-]S(=O)(=O)C(F)(F)C(F)(F)F)C(F)(F)C(F)(F)F, the activity coefficient was 2.4 ± 0.16 (322.55 K), 2.35 ± 0.16 (342.75 K) and 2.33 ± 0.16 (362.65 K).

As to `CCCCCCCCC` [nonane] + CCCCn1cc[n+](C)c1.O=S(=O)([N-]S(=O)(=O)C(F)(F)C(F)(F)F)C(F)(F)C(F)(F)F, the activity coefficient (322.55 K) came out at 31.5 ± 2.2, the activity coefficient (342.75 K) worked out at 26 ± 1.8 and the activity coefficient (362.65 K) turned out to be 21.8 ± 1.5.

`C1COCCO1` [1,4-dioxane] + CCCCCC[n+]1ccn(C)c1.FC(F)(F)C(F)(F)[P-](F)(F)(F)(C(F)(F)C(F)(F)F)C(F)(F)C(F)(F)F: the activity coefficient is 0.273 ± 0.03 (312.8 K), 0.327 ± 0.032 (332.85 K) and 0.339 ± 0.032 (354.65 K).

On to `CC(C)OC(C)C` [diisopropyl ether] + CCn1cc[n+](C)c1.CS(=O)(=O)[O-], for which the activity coefficient reads like this: (312.55 K) 84.5 ± 5.8; (322.45 K) 74.2 ± 5.1; (332.45 K) 67.7 ± 4.6.

For `CCO` [ethanol] + CCCCn1cc[n+](C)c1.O=S(=O)([N-]S(=O)(=O)C(F)(F)C(F)(F)F)C(F)(F)C(F)(F)F, the activity coefficient reads like this: (322.55 K) 1.65 ± 0.11; (342.75 K) 1.37 ± 0.089; (362.65 K) 1.18 ± 0.075.

On to `C#CCCCC` [1-hexyne] + CCCCCCCCCCn1cc[n+](CCCCCCCCCC)c1C.O=S(=O)([N-]S(=O)(=O)C(F)(F)F)C(F)(F)F, for which the activity coefficient was 0.925 ± 0.058 (323.1 K), 0.917 ± 0.058 (333.15 K) and 0.899 ± 0.057 (343.15 K).

On to `CCCCO` [butan-1-ol] + CCCCn1cc[n+](C)c1.O=S(=O)([N-]S(=O)(=O)C(F)(F)C(F)(F)F)C(F)(F)C(F)(F)F, for which the activity coefficient (322.55 K) was 2.49 ± 0.17, the activity coefficient (342.75 K) stood at 2 ± 0.14 and the activity coefficient (362.65 K) worked out at 1.7 ± 0.11.

As for `CCC[N+](=O)[O-]` [1-nitropropane] + CCCCn1cc[n+](C)c1.O=S(=O)([N-]S(=O)(=O)C(F)(F)C(F)(F)F)C(F)(F)C(F)(F)F, the activity coefficient is 0.769 ± 0.05 (322.55 K), 0.821 ± 0.053 (342.75 K) and 0.756 ± 0.05 (362.65 K).

As to `ClC(Cl)Cl` [trichloromethane] + CCCCCCCCCCn1cc[n+](CCCCCCCCCC)c1C.O=S(=O)([N-]S(=O)(=O)C(F)(F)F)C(F)(F)F, the activity coefficient stood at 0.374 ± 0.033 (323.1 K), 0.395 ± 0.034 (333.15 K) and 0.402 ± 0.034 (343.15 K).
